Results taken from patent US6753456B2, “Point mutant mice with hypersensitive alpha 4 nicotinic receptors: dopaminergic pathology and increased anxiety” (California Institute of Technology, priority 2000, dated 2004).
“Also recorded” adds a separate entry of the source. Counter-ions that a name gives are not always drawn.

What was measured:
[1] = target: T1, mutated (α4 Leu9′Ser) rat α4β2 receptors (Rattus norvegicus, UniProt P09483+P12390, L285S); assay: Two-electrode voltage clamp, agonist concentration-response of mutated α4β2 receptors expressed in Xenopus oocytes; assay type: cell-based
T1 construct: expressed in transfected cells; host or cells: Xenopus oocytes (capped mRNA injected, α4L9′S/β2 1:1)
Description: FIG. 1C, the agonist is choline.
Xenopus Oocyte Injections and Electrophysiology The α4 and β2 subunits were subcloned into pAMV-PA (Nowak, et al.(1998) Methods Enzymol. 293, 504-529). Capped mRNA transcripts were prepared, and α4/β2 (2 ng, 1:1) or α4L9′/β2 (0.2-0.5 ng, 1:1) were microinjected into Xenopus oocytes. Twenty-four to seventy-two hours later, two-electrode voltage clamp recordings were made in solutions containing zero […].
Chimeric males from the resulting two mouse lines, neo-intact and neo-deleted, were bred to C57BL/6 females to generate animals heterozygous for the mutation, and mice were tested for the mutation by sequencing of genomic DNA (FIG. 1F).

α4β2 receptors = details: rats, Felix and Levin (1997); cited from earlier work
[2] = system: WT and heterozygous (het) neo-intact mutants; assay: Ambulation (locomotion) of WT and heterozygous neo-intact mice after drug injection; assay type: in vivo, mouse
[3] = system: heterozygous L9′S α4 and wild type mice; assay: Behavioral scoring of nicotine-induced seizure activity and Straub tail; assay type: in vivo, mouse
Text: To pharmacologically characterize the L9′S mutation effects on seizure induction in the α4 mice behavioral responses to pharmacologic stimulation were videotaped and scored.

nAChRs = details: Damaj, et al. (1999); cited from earlier work
heterozygous and WT mice = details: nicotine 0.1 mg/kg
Text: Mouse electroencephalography can also be used to examine the susceptibility of transgenic mice to seizures. A surgical and electrophysiological rig that allows simultaneous video-electroencephalographic (EEG) recordings in free moving animals can be used. For EEG electrode implants, mice are anesthetized with a ketamine-xylazine mixture, 0.2 mm-diameter tungsten wire electrodes are positioned through drilled holes in the cranium in a twisted pair configuration and placed stereotactically within different regions of the brain. A three-pin microconnector (ground electrode plus two recording electrodes) is cemented to the skull surface. Following surgery, mice are allowed to recover for 48 hours.

[4] = system: cells in acute midbrain slices from α4 mutant heterozygous and wild type animals; assay: Electrophysiology on acute midbrain slices; assay type: cell-based, mouse; details: heterozygous vs wild type
Description: Electrophysiological studies on brain slices derived from transgenic α4 mice. Slices obtained from frontal cerebral cortex, hippocampus, and midbrain can be used for field and intracellular recordings. Field recordings serve to determine whether various compounds cause or block synchronized firing in these neuronal ensembles. Whole-cell patch recordings provide information regarding activation and/or desensitization of nAChRs in individual neurons when exposed to various agonists and antagonists, as well as the effects of these compounds on firing rates. Because interneurons express most of the α4 receptors, recordings from interneurons and IPSC's in pyramidal cells are useful for study.

[5] = system: neurons from transgenic L9′S and WT mice; details: 10 μM nicotine
Text: The paradigms described above can be implemented in slices derived from other brain areas such as the cortex and the midbrain. Large inhibitory and excitatory potentials can be recorded from pyramidal cells in cortical slices (Hasselmo and Barkai (1995). J. Neurosci 15, 6592-604).

T1 sequence (P09483 31-630 L285S): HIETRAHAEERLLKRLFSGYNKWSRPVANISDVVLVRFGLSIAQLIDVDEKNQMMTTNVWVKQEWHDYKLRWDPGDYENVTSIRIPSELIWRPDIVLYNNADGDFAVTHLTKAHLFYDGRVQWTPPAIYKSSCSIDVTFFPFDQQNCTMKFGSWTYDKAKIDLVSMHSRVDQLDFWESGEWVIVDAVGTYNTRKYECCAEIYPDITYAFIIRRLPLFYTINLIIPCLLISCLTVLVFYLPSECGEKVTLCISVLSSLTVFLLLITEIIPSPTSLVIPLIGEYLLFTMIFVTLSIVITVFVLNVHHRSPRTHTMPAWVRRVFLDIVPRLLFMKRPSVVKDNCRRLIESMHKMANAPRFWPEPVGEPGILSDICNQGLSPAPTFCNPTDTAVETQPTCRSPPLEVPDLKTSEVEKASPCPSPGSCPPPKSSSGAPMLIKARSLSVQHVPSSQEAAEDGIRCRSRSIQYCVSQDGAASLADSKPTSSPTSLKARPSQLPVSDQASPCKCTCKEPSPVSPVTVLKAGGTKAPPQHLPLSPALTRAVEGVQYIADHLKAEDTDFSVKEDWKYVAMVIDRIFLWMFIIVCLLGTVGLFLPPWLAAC
T1 sequence (P12390 25-500): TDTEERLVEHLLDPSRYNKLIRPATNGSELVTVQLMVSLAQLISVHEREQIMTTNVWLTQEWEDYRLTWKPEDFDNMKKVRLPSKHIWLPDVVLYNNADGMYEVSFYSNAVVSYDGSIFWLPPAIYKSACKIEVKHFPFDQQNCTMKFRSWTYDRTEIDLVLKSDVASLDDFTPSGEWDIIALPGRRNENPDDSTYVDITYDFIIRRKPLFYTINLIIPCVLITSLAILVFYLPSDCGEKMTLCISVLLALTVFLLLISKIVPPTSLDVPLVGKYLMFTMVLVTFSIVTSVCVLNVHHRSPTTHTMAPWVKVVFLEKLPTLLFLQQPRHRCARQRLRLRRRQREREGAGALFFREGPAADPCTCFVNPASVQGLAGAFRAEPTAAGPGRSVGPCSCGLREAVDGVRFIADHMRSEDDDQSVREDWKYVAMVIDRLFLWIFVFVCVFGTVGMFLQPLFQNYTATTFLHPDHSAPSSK

CCN(CC)CCCCCCCCOC(=O)c1cc(OC)c(OC)c(OC)c1.Cl [8-(diethylamino)octyl 3,4,5-trimethoxyben-zoate hydrochloride]
effect on increased leakage currents in oocytes expressing α4L9′S/β2 receptor ([1]; 500 nM, nine oocytes): blockable

CO[C@H]1CC=C2CCN3CCC4=C(CC(=O)OC4)[C@]23C1 [DHβE, Dihydro-β-erythroidine]
seizure induction (α4β2 receptors): induce seizures

C[C@H](N)Cc1ccccc1 [amphetamine, d-amphetamine sulfate]
locomotor response in young mice ([2]; 5 mg/kg i.p., about 3-month-old WT and heterozygous mice): stimulated locomotion
locomotor response of heterozygous mice at 11 months vs 3 months ([2]; 5 mg/kg i.p., heterozygous, 11 months of age): declines significantly; also recorded: reduced amphetamine-induced locomotion

C[N+](C)(C)CCO [choline]
activation of the mutated receptor, % of maximal values ([1]; choline about 10 μM): 20%

CNC1(C)C2CCC(C2)C1(C)C (stereo not shown) [mecamylamine]
effect on nicotine effects (seizures, Straub tail) ([3]; mecamylamine 2 mg/kg, both hets and WT): partially blocked
block of nicotine-induced seizures (nAChRs): effective nicotine-induced seizure blocker

CN1CCCC1c1cccnc1 (stereo not shown) [nicotine]
sensitivity of L9′S nAChRs expressed in frog oocytes to the ligand ([1]; summary statement): increased sensitivity
shift of the dose-response relation to the left by the Leu-9′-Ser mutation (increase in agonist sensitivity) ([1]; α4β2 receptor tested in oocytes, mutant vs WT): about 30 fold
effect on locomotor activity of WT mice ([2]; nicotine 0.02 mg/kg i.p., WT mice): no significant difference; also recorded: not affected
effect on locomotor activity of heterozygous knock-in mice ([2]; nicotine 0.02 mg/kg i.p., heterozygous mice, 5-15 min after injection): significant reduction of locomotor activity; also recorded: sharply reduces the level of activity
doses required for severe tonic-clonic seizures in WT animals ([3]; WT): > 10 mg/kg
threshold to nicotine-induced seizures in L9′S knock-in mice ([3]; summary statement): reduced threshold
EEG recordings of WT (heterozygous and WT mice; WT): unaffected
EEG response of a heterozygous mouse (heterozygous and WT mice; heterozygous): Rapid-burst discharges
amplitude of 6 Hz theta rhythm in a heterozygous mouse (heterozygous and WT mice; heterozygous): two-fold increased amplitude
concentrations to which heterozygous cells respond relative to those activating receptors in wild type slices [4]: ten times lower
response of WT-derived cells ([5]; WT): remained silent or required much larger concentrations to be activated
response of neurons from transgenic mice ([5]; majority of neurons): responded with spontaneous bursts
